Tests used:
OM10.1 cells = experiment: Cell-associated HIV Gag mRNA expression / HIV transcription in latently infected OM10.1 cells; type: cell-based; details: 12-day treatment with ARVs
Method: (§1) Next, the activity of these leads against HIV infection was evaluated using the reporter cell line HeLa-CD4-LTR-LacZ, which stably expresses the β-galactosidase (β-Gal) gene under the control of the HIV 5′ LTR. The HIV NL4.3 strain was used for these studies and β-Gal activity was measured 72 hrs post infection (FIG. 3A). Cytotoxicity assays using Cell-Titer-Glo were performed in parallel to assess cell viability (FIG. 3A). […] Their anti-HIV activity was further assessed in acute replication of Jurkat T cells with the NL4.3 strain (FIG. 3A). […] These OM10.1 cells contain a single integrated wild-type provirus, while ACH-2 cells contain a single integrated provirus with a TAR mutation C37T, defective Tat-TAR feedback loop (FIG. 3B).

HIV = details: combined with ART; CD4+ T cells from infected individuals and humanized mouse model; cited from earlier work
[1] = test system: TAR (Flag-Tat-Rev fusion protein); experiment: Flag-Tat-Rev fusion protein transactivation via TAR; type: cell-based, HIV-1; details: TAR reporter
ACH-2 cells = experiment: Cell-associated HIV Gag mRNA expression / HIV transcription in latently infected ACH-2 cells; type: cell-based; details: ACH-2; 12-day treatment with ARVs
Method: as §1

[2] = test system: TAR-SIIB promoter (Flag-Tat-Rev fusion protein); experiment: Flag-Tat-Rev fusion protein transactivation of TAR-SIIB promoter; type: cell-based, HIV-1; details: SIIB reporter HEK293T
Method: FIG. 4. […] Shown is n=1. […] Shown is n=1. ARVs: antiretrovirals: 100 nM Efavirenz, 200 nM Lamivudine and 200 nM Raltegravir. C. […] SIIB: a reporter HEK293T stable cell line where the essential apical region of TAR was replaced by the 29-nucleotide stem-loop IIB (SIIB) subdomain of the HIV-1 RRE. A Tat-Rev fusion protein activates transcription of luciferase when Rev binds SIIB, bringing Tat and P-TEFb to RNAPII at the HIV promoter. Shown is mean±SEM of n=4.

Flag-Tat = molecular target: T1, Flag-Tat (Human immunodeficiency virus type 1 (HXB3 ISOLATE), UniProt P69698); experiment: Degradation assay: Flag-Tat in HEK293T cells, western blot; type: cell-based, HIV
T1 construct: Tat 86 aa likely (9 lysines)
T1 sequence (P69698 whole entry): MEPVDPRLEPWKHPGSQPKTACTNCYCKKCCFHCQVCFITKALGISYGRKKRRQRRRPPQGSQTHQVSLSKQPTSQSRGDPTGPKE
Method: Next, the effect of the three leads on the alteration of Tat steady state levels was assessed. Tat expression from an integrated provirus, or from HIV acute infection is generally too low to be detected by western blot. Furthermore, antibodies against Tat are known for their lack of avidity. Tat degradation was thus assessed upon transfection. Flag-Tat or Flag-GFP were individually transfected into HEK293T and 24 hrs later, TT-44856, TT-44863 or TT-44881 were added to the culture, followed by Western blot 24 hrs later (dubbed “degradation assay”) (FIG. 5A). […] These cells were treated with TNFα (previously determined not be degraded by the three leads in FIG. 2D) in the presence of TT-44856, TT-44863 or TT-44881, followed by western blot with an anti-Flag antibody 17 hrs later. […] Finally, the leads' impact on recombinant Tat protein in HEK293T cells was assessed (FIG. 5D). HEK293T cells were incubated with recombinant Tat for 4 hrs to allow Tat internalization, followed by several thorough washes to remove unincorporated Tat. Cells were then incubated with all three leads (or Triptolide) for an additional 2 hrs. Cells were lysed and analyzed by western blot with an anti-Tat serum.
Degradation of Tat has been reported in the literature in multiple ways, including the lysosomal pathway^23, the ubiquitin-independent 20S proteasomal pathway (due to its unfolded structure)^24,25, and the ubiquitin-dependent 26S proteasomal pathway^26. It was first assessed whether Tat was targeted to the lysosomal pathway by the lead compounds. HEK293T cells were transfected with Flag-Tat for 24 hrs, incubated with the compounds for an additional 24 hrs, then treated for 8 hrs with either 100 μM chloroquine or 50 mM NH4Cl, both known to inhibit lysosomal hydrolases by reducing acidification. […] Both the 20S and the 26S proteasomal pathways were next investigated using MG132, an inhibitor of the catalytic […] of 20S present in both pathways^27. The degradation assay was carried out as above, but compounds were simultaneously incubated with MG132 20 μM or DMSO for 17 hrs followed by western blot. In the presence of MG132, Tat degradation was rescued, but the rescue was higher in the presence of the lead compounds (FIG. 6B).
Protein ubiquitination occurs by sequential recruitment of ubiquitin-activating enzyme E1, ubiquitin-conjugating enzyme E2, and ubiquitin ligase E3 (using ubiquitin, substrate protein, and ATP). The selectivity in protein ubiquitination is conferred by E3 ubiquitin ligases that recognize the substrate proteins^29 and the human genome contains more than 600 E3 ubiquitin ligases^29. To determine whether the small molecule leads trigger the 20S or the 26S proteasomal pathways, the Tat degradation assay was performed in the presence of commercially available E3 ligase inhibitors, including Lenalidomide a E3 ubiquitin ligase Cereblon inhibitor. Cereblon has not been previously reported to ubiquitinate Tat. The degradation assays were performed as above with Lenalidomide (40 μM) or DMSO incubation for 4 hrs in the presence of the lead molecules (FIG. 7A). […] To confirm the engagement of Cereblon in the mechanism of action of the lead compounds, shRNAs were used to stably knock down Cerebelon, or CD8 control, in HEK293T cells, and the degradation assay for TT-44856 was performed.
The involvement of the ubiquitous VHL E3 ligase in the activity of TT-44881 inducing Tat degradation was also investigated. HEK293T cells overexpressing Tat protein and VHL siRNAs (or si control) were treated with either TT-44881 (60 μM) and DMSO or TT-44881 with a VHL PROTAC (CM11, 500 nM) for 24 hours. siRNAs and PROTACs were used together to maximize the depletion of both VHL isoforms (30 and 19 kDa).

recombinant Tat = molecular target: T2, recombinant Tat (Human immunodeficiency virus type 1 (HXB3 ISOLATE), UniProt P69698); experiment: Recombinant Tat stability in HEK293T cells, western blot; type: cell-based, HIV; details: 4 hrs recombinant Tat then 2 hrs compound, n=1
T2 construct: detected with anti-Tat serum
T2 sequence (P69698 whole entry): as above
Method: Next, the effect of the three leads on the alteration of Tat steady state levels was assessed. Tat expression from an integrated provirus, or from HIV acute infection is generally too low to be detected by western blot. Furthermore, antibodies against Tat are known for their lack of avidity. Tat degradation was thus assessed upon transfection. Flag-Tat or Flag-GFP were individually transfected into HEK293T and 24 hrs later, TT-44856, TT-44863 or TT-44881 were added to the culture, followed by Western blot 24 hrs later (dubbed “degradation assay”) (FIG. 5A). […] Finally, the leads' impact on recombinant Tat protein in HEK293T cells was assessed (FIG. 5D). HEK293T cells were incubated with recombinant Tat for 4 hrs to allow Tat internalization, followed by several thorough washes to remove unincorporated Tat. Cells were then incubated with all three leads (or Triptolide) for an additional 2 hrs. Cells were lysed and analyzed by western blot with an anti-Tat serum.

| SMILES | Gag mRNA / HIV transcription (in words) (OM10.1 cells) | transcription and viral rebound with ART (HIV) | Flag-Tat-Rev / TAR [1] | Gag mRNA / HIV transcription (in words) (ACH-2 cells) | Flag-Tat-Rev transactivation of TAR-SIIB [2] | Flag-Tat degradation / steady state (Flag-Tat; HEK293T, western blot) | effect of Lenalidomide on compound induced Flag-Tat degradation (Flag-Tat; Lenalidomide 40 μM, 4 hrs) | recombinant Tat degradation (recombinant Tat) |
| --- | --- | --- | --- | --- | --- | --- | --- | --- |
| CN(C)[C@H]1C[C@@]23CC[C@@]4(O2)C(=CC[C@]2(C)C(c5ccc6ccncc6c5)=CC[C@H]24)C=C3[C@@H](O)[C@@H]1O [dCA, didehydro-Cortistatin A, reference compound] | only inhibited transcription in OM10.1 cells | inhibits transcription and blocks viral rebound upon treatment interruption | interfered with the Flag-Tat-Rev to TAR binding | – | – | – | – | – |
| CC(C)[C@]12O[C@H]1[C@@H]1O[C@]13[C@]1(O[C@H]1C[C@H]1C4=C(CC[C@@]13C)C(=O)OC4)[C@@H]2O [Triptolide, reference compound] | reduced Gag mRNA in both cell lines | – | inhibition of both TAR and TAR-SIIB | reduced Gag mRNA in both cell lines | inhibition of both TAR and TAR-SIIB | nonspecifically degraded Flag-Tat | did not engage the 26S proteasomal pathway, but only the 20S proteasomal pathway | degraded Tat as opposed to the DMSO control |

From US20260355184A1, “SMALL MOLECULE DEGRADERS OF HIV-1 TAT PROTEIN” (priority 2022, published 2026)
